# Measured values from ChEMBL document CHEMBL4765227, “Hit to lead optimization of a series of N-[4-(1,3-benzothiazol-2-yl)phenyl]acetamides as monoacylglycerol lipase inhibitors with potential anticancer activity” (Eur J Med Chem, 2016).
# Tests used:
# Assay type in all cases: functional
# Conditions in all cases: read-out: GI
# CCRF-CEM = test: Growth inhibition of human CCRF-CEM cells at 10 uM incubated for 48 hrs by sulforhodamine B assay relative to control
# K562 = test: Growth inhibition of human K562 cells at 10 uM incubated for 48 hrs by sulforhodamine B assay relative to control
# RPMI-8226 = test: Growth inhibition of human RPMI-8226 cells at 10 uM incubated for 48 hrs by sulforhodamine B assay relative to control
# A549 = test: Growth inhibition of human A549/ATCC cells at 10 uM incubated for 48 hrs by sulforhodamine B assay relative to control
# HOP-92 = test: Growth inhibition of human HOP-92 cells at 10 uM incubated for 48 hrs by sulforhodamine B assay relative to control
# NCI-H226 = test: Growth inhibition of human NCI-H226 cells at 10 uM incubated for 48 hrs by sulforhodamine B assay relative to control
# NCI-H23 = test: Growth inhibition of human NCI-H23 cells at 10 uM incubated for 48 hrs by sulforhodamine B assay relative to control
# NCI-H322M = test: Growth inhibition of human NCI-H322M cells at 10 uM incubated for 48 hrs by sulforhodamine B assay relative to control
# NCI-H460 = test: Growth inhibition of human NCI-H460 cells at 10 uM incubated for 48 hrs by sulforhodamine B assay relative to control
# NCI-H522 = test: Growth inhibition of human NCI-H522 cells at 10 uM incubated for 48 hrs by sulforhodamine B assay relative to control
# COLO 205 = test: Growth inhibition of human COLO 205 cells at 10 uM incubated for 48 hrs by sulforhodamine B assay relative to control
# HCC 2998 = test: Growth inhibition of human HCC 2998 cells at 10 uM incubated for 48 hrs by sulforhodamine B assay relative to control
# HCT-116 = test: Growth inhibition of human HCT-116 cells at 10 uM incubated for 48 hrs by sulforhodamine B assay relative to control
# HCT-15 = test: Growth inhibition of human HCT-15 cells at 10 uM incubated for 48 hrs by sulforhodamine B assay relative to control
# HT-29 = test: Growth inhibition of human HT-29 cells at 10 uM incubated for 48 hrs by sulforhodamine B assay relative to control
# KM12 = test: Growth inhibition of human KM12 cells at 10 uM incubated for 48 hrs by sulforhodamine B assay relative to control
# SW-620 = test: Growth inhibition of human SW-620 cells at 10 uM incubated for 48 hrs by sulforhodamine B assay relative to control
# SF-268 = test: Growth inhibition of human SF-268 cells at 10 uM incubated for 48 hrs by sulforhodamine B assay relative to control
# SNB-19 = test: Growth inhibition of human SNB-19 cells at 10 uM incubated for 48 hrs by sulforhodamine B assay relative to control
# SNB-75 = test: Growth inhibition of human SNB-75 cells at 10 uM incubated for 48 hrs by sulforhodamine B assay relative to control
# LOX IMVI = test: Growth inhibition of human LOX IMVI cells at 10 uM incubated for 48 hrs by sulforhodamine B assay relative to control
# Malme-3M = test: Growth inhibition of human Malme-3M cells at 10 uM incubated for 48 hrs by sulforhodamine B assay relative to control
# M14 = test: Growth inhibition of human M14 cells at 10 uM incubated for 48 hrs by sulforhodamine B assay relative to control
# MDA-MB-435 = test: Growth inhibition of human MDA-MB-435 cells at 10 uM incubated for 48 hrs by sulforhodamine B assay relative to control
# SK-MEL-28 = test: Growth inhibition of human SK-MEL-28 cells at 10 uM incubated for 48 hrs by sulforhodamine B assay relative to control
# SK-MEL-5 = test: Growth inhibition of human SK-MEL-5 cells at 10 uM incubated for 48 hrs by sulforhodamine B assay relative to control
# UACC-257 = test: Growth inhibition of human UACC-257 cells at 10 uM incubated for 48 hrs by sulforhodamine B assay relative to control
# UACC-62 = test: Growth inhibition of human UACC-62 cells at 10 uM incubated for 48 hrs by sulforhodamine B assay relative to control
# IGROV-1 = test: Growth inhibition of human IGROV-1 cells at 10 uM incubated for 48 hrs by sulforhodamine B assay relative to control
# OVCAR-3 = test: Growth inhibition of human OVCAR-3 cells at 10 uM incubated for 48 hrs by sulforhodamine B assay relative to control
# OVCAR-4 = test: Growth inhibition of human OVCAR-4 cells at 10 uM incubated for 48 hrs by sulforhodamine B assay relative to control
# OVCAR-5 = test: Growth inhibition of human OVCAR-5 cells at 10 uM incubated for 48 hrs by sulforhodamine B assay relative to control
# NCI/ADR-RES = test: Growth inhibition of human NCI/ADR-RES cells at 10 uM incubated for 48 hrs by sulforhodamine B assay relative to control
# SK-OV-3 = test: Growth inhibition of human SK-OV-3 cells at 10 uM incubated for 48 hrs by sulforhodamine B assay relative to control
# 786-0 = test: Growth inhibition of human 786-0 cells at 10 uM incubated for 48 hrs by sulforhodamine B assay relative to control
# ACHN = test: Growth inhibition of human ACHN cells at 10 uM incubated for 48 hrs by sulforhodamine B assay relative to control
# CAKI-1 = test: Growth inhibition of human CAKI-1 cells at 10 uM incubated for 48 hrs by sulforhodamine B assay relative to control
# RXF 393 = test: Growth inhibition of human RXF 393 cells at 10 uM incubated for 48 hrs by sulforhodamine B assay relative to control
# TK-10 = test: Growth inhibition of human TK-10 cells at 10 uM incubated for 48 hrs by sulforhodamine B assay relative to control
# DU-145 = test: Growth inhibition of human DU-145 cells at 10 uM incubated for 48 hrs by sulforhodamine B assay relative to control
# MCF7 = test: Growth inhibition of human MCF7 cells at 10 uM incubated for 48 hrs by sulforhodamine B assay relative to control
# MDA-MB-231 = test: Growth inhibition of human MDA-MB-231 cells at 10 uM incubated for 48 hrs by sulforhodamine B assay relative to control
# BT-549 = test: Growth inhibition of human BT-549 cells at 10 uM incubated for 48 hrs by sulforhodamine B assay relative to control
# T47D = test: Growth inhibition of human T47D cells at 10 uM incubated for 48 hrs by sulforhodamine B assay relative to control
compound,measurement,setting,value
O=C(Cn1nnc2ccccc21)Nc1ccc(-c2nc3ccccc3s2)cc1,inhibition of growth at 10 µM,CCRF-CEM,30.3%
same,inhibition of growth at 10 µM,K562,44.8%
same,inhibition of growth at 10 µM,RPMI-8226,14.7%
same,inhibition of growth at 10 µM,A549,6.45%
same,inhibition of growth at 10 µM,HOP-92,26.9%
same,inhibition of growth at 10 µM,NCI-H226,32.5%
same,inhibition of growth at 10 µM,NCI-H23,19.3%
same,inhibition of growth at 10 µM,NCI-H322M,-2.72%
same,inhibition of growth at 10 µM,NCI-H460,17%
same,inhibition of growth at 10 µM,NCI-H522,20.8%
same,inhibition of growth at 10 µM,COLO 205,-5.13%
same,inhibition of growth at 10 µM,HCC 2998,6.26%
same,inhibition of growth at 10 µM,HCT-116,2.6%
same,inhibition of growth at 10 µM,HCT-15,8.49%
same,inhibition of growth at 10 µM,HT-29,-0.75%
same,inhibition of growth at 10 µM,KM12,8.6%
same,inhibition of growth at 10 µM,SW-620,5.47%
same,inhibition of growth at 10 µM,SF-268,7.63%
same,inhibition of growth at 10 µM,SNB-19,-2.9%
same,inhibition of growth at 10 µM,SNB-75,-6.26%
same,inhibition of growth at 10 µM,LOX IMVI,15.8%
same,inhibition of growth at 10 µM,Malme-3M,3.07%
same,inhibition of growth at 10 µM,M14,9.36%
same,inhibition of growth at 10 µM,MDA-MB-435,4.09%
same,inhibition of growth at 10 µM,SK-MEL-28,-1.87%
same,inhibition of growth at 10 µM,SK-MEL-5,25.7%
same,inhibition of growth at 10 µM,UACC-257,5.5%
same,inhibition of growth at 10 µM,UACC-62,2.9%
same,inhibition of growth at 10 µM,IGROV-1,2.46%
same,inhibition of growth at 10 µM,OVCAR-3,9.56%
same,inhibition of growth at 10 µM,OVCAR-4,27.8%
same,inhibition of growth at 10 µM,OVCAR-5,-4.45%
same,inhibition of growth at 10 µM,NCI/ADR-RES,3.77%
same,inhibition of growth at 10 µM,SK-OV-3,-4.22%
same,inhibition of growth at 10 µM,786-0,5.01%
same,inhibition of growth at 10 µM,ACHN,-9.93%
same,inhibition of growth at 10 µM,CAKI-1,14.5%
same,inhibition of growth at 10 µM,RXF 393,0.05%
same,inhibition of growth at 10 µM,TK-10,5.23%
same,inhibition of growth at 10 µM,DU-145,26%
same,inhibition of growth at 10 µM,MCF7,71.1%
same,inhibition of growth at 10 µM,MDA-MB-231,5.25%
same,inhibition of growth at 10 µM,BT-549,13.5%
same,inhibition of growth at 10 µM,T47D,33.1%
O=C(Cn1cncn1)Nc1ccc(-c2nc3ccccc3s2)cc1,inhibition of growth at 10 µM,CCRF-CEM,-4.97%
same,inhibition of growth at 10 µM,K562,14.2%
same,inhibition of growth at 10 µM,RPMI-8226,16.8%
same,inhibition of growth at 10 µM,A549,11.9%
same,inhibition of growth at 10 µM,HOP-92,6.49%
same,inhibition of growth at 10 µM,NCI-H226,25%
same,inhibition of growth at 10 µM,NCI-H23,12.5%
same,inhibition of growth at 10 µM,NCI-H322M,-0.63%
same,inhibition of growth at 10 µM,NCI-H460,2.97%
same,inhibition of growth at 10 µM,NCI-H522,12.5%
same,inhibition of growth at 10 µM,COLO 205,-6.86%
same,inhibition of growth at 10 µM,HCC 2998,6.06%
same,inhibition of growth at 10 µM,HCT-116,4.58%
same,inhibition of growth at 10 µM,HCT-15,-1.4%
same,inhibition of growth at 10 µM,HT-29,-4.68%
same,inhibition of growth at 10 µM,KM12,1.84%
same,inhibition of growth at 10 µM,SW-620,-6.34%
same,inhibition of growth at 10 µM,SF-268,2.87%
same,inhibition of growth at 10 µM,SNB-19,6.99%
same,inhibition of growth at 10 µM,SNB-75,7.87%
same,inhibition of growth at 10 µM,LOX IMVI,0.66%
same,inhibition of growth at 10 µM,Malme-3M,-0.27%
same,inhibition of growth at 10 µM,M14,-11.2%
same,inhibition of growth at 10 µM,MDA-MB-435,-4.86%
same,inhibition of growth at 10 µM,SK-MEL-28,-11%
same,inhibition of growth at 10 µM,SK-MEL-5,13.3%
same,inhibition of growth at 10 µM,UACC-257,-2.17%
same,inhibition of growth at 10 µM,UACC-62,4.77%
same,inhibition of growth at 10 µM,IGROV-1,7.64%
same,inhibition of growth at 10 µM,OVCAR-3,8.95%
same,inhibition of growth at 10 µM,OVCAR-4,19.4%
same,inhibition of growth at 10 µM,OVCAR-5,-15%
same,inhibition of growth at 10 µM,NCI/ADR-RES,-1.6%
same,inhibition of growth at 10 µM,SK-OV-3,0.14%
same,inhibition of growth at 10 µM,786-0,4.38%
same,inhibition of growth at 10 µM,ACHN,-10.5%
same,inhibition of growth at 10 µM,CAKI-1,6.2%
same,inhibition of growth at 10 µM,RXF 393,-25.3%
same,inhibition of growth at 10 µM,TK-10,-6.22%
same,inhibition of growth at 10 µM,DU-145,5.46%
same,inhibition of growth at 10 µM,MCF7,63.9%
same,inhibition of growth at 10 µM,MDA-MB-231,3.55%
same,inhibition of growth at 10 µM,BT-549,8.47%
same,inhibition of growth at 10 µM,T47D,35.1%
